Assay results reported in the supplement of paper PMC10477900.
Counter-ions that a name gives are not always drawn.

What was measured:
HCT116 [1] = assay: viability inhibition vs untreated; higher = more cytotoxic; conditions: 72 h
HCT116 [2] = conditions: 72 h
Experimental: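 HCT116 control and MTA1-KO (CRISPR) HCT116 cells were seeded in 384-well plates (800 cells/well), treated 16 h later with 237 metabolism-related anticancer drugs at five doses (10 uM, 2 uM, 400 nM, 80 nM, 16 nM) for 72 h, two replicates; viability by CCK8. Values are % inhibition of viability relative to untreated cells, plus fitted IC50.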

| SMILES | viability inhibition (HCT116 [1]; genotype: MTA1-KO, 16 nM) [%] | viability inhibition (HCT116 [1]; genotype: MTA1-KO, 80 nM) [%] | viability inhibition (HCT116 [1]; genotype: MTA1-KO, 400 nM) [%] | viability inhibition (HCT116 [1]; genotype: MTA1-KO, 2000 nM) [%] | viability inhibition (HCT116 [1]; genotype: MTA1-KO, 10000 nM) [%] | viability inhibition (HCT116 [1]; genotype: control, 16 nM) [%] | viability inhibition (HCT116 [1]; genotype: control, 80 nM) [%] | viability inhibition (HCT116 [1]; genotype: control, 400 nM) [%] | viability inhibition (HCT116 [1]; genotype: control, 2000 nM) [%] | viability inhibition (HCT116 [1]; genotype: control, 10000 nM) [%] | IC50 (HCT116 [2]; genotype: MTA1-KO) [µM] | IC50 (HCT116 [2]; genotype: control) [µM] |
| --- | --- | --- | --- | --- | --- | --- | --- | --- | --- | --- | --- | --- |
| NCc1ccc(S(N)(=O)=O)cc1 [Mafenide hydrochloride] | -13 | -12.9 | -16.5 | -13.4 | -15.9 | -4.74 | 6.87 | -2.33 | -2.58 | -6.77 | > 10 | > 10 |
| O=c1c2cc(O)c(O)cc2oc2cc(O)c([C@@H]3O[C@H](CO)[C@@H](O)[C@H](O)[C@H]3O)c(O)c12 [Mangiferin] | -12.5 | -17.6 | -11.2 | -10.4 | -14.8 | -7.62 | 8.64 | 4.62 | 6.09 | 1.62 | > 10 | > 10 |
| COc1ccc2[nH]cc(CCNC(C)=O)c2c1 [Melatonine] | 11.6 | 12.1 | 6.76 | 7.43 | 8.55 | 10.2 | 9.39 | 9.78 | 24.1 | 14.5 | > 10 | > 10 |
| S=c1nc[nH]c2nc[nH]c12 [Mercaptopurine] | -23.8 | -26.8 | -16.8 | -13.3 | 63 | -20.2 | -15.2 | -11.9 | 24.6 | 90.5 | 6.61 | 2.74 |
| CN(C)C(=N)N=C(N)N [Metformin hydrochloride] | -20.9 | -15.7 | -16.8 | -16.1 | -14.1 | -3.73 | -8.51 | 4.88 | 7.24 | 3.98 | > 10 | > 10 |
| CC(=O)N=c1sc(S(N)(=O)=O)nn1C [Methazolamide] | -8.89 | -28.2 | -14.6 | -23.2 | -21.9 | 6.26 | -6.63 | -3.65 | -3.04 | -0.243 | > 10 | > 10 |
| COc1ccccc1OCC(O)COC(N)=O (stereo not drawn) [Methocarbamol] | -9.86 | -16.2 | -9.99 | -8.84 | -12 | -5.51 | -3.73 | -0.351 | 5.2 | 11 | > 10 | > 10 |
| CN(Cc1cnc2nc(N)nc(N)c2n1)c1ccc(C(=O)N[C@@H](CCC(=O)O)C(=O)O)cc1 [Methotrexate] | 7.18 | -2.93 | -6.45 | -1.18 | 33 | 17.9 | 13.5 | 16.6 | 6.71 | 63.6 | > 10 | 8.92 |
| CC[C@H](C)C(=O)O[C@H]1CCC=C2C=C[C@H](C)[C@H](CC[C@@H]3C[C@@H](O)CC(=O)O3)[C@H]21 [Mevastatin] | -20.4 | -7.46 | -17.3 | -17.5 | -22.4 | -7.08 | 9.09 | 5.14 | 1.68 | 23.8 | > 10 | > 10 |
| O=C(c1ccc(NS(=O)(=O)c2cccc3cccnc23)cc1)N1CCN(CC2CC2)CC1 [Mitapivat] | 1.32 | 0.728 | -12.6 | -14.4 | -2.88 | -8.53 | -14.2 | -22.8 | -10.3 | -12.3 | > 10 | > 10 |
| O=C(O)c1cccnc1Nc1cccc(C(F)(F)F)c1 [Niflumic acid] | -15.2 | -17.4 | -11.9 | -15.8 | -9.84 | 3.66 | 11.1 | -0.91 | -2.33 | 0.571 | > 10 | > 10 |
| Cc1ccc2nc(N)[nH]c(=O)c2c1Sc1ccncc1 [Nolatrexed] | 8.71 | 2.94 | -1.21 | 1.75 | 76 | -21.6 | -20.5 | 4.76 | -22.2 | -11.3 | 9.66 | > 10 |
| COc1cccc2cc(-c3nc(C4CCC(C(=O)O)CC4)n4ncnc(N)c34)[nH]c12 (stereo not drawn) [OSI027] | 12.5 | 9.23 | 10.1 | -2.44 | 2.62 | -12.5 | -20.5 | -21.1 | 13.8 | 42.3 | > 10 | > 10 |
| Cc1c(-c2cnccn2)ssc1=S [Oltipraz] | -30.8 | -24.9 | -26.7 | -26.6 | -33.9 | -15.3 | -6.71 | -20.1 | -19.1 | -6.16 | > 10 | > 10 |
| COC(=O)N1CCN(Cc2cccc(NC(=O)Nc3ccc(C)nc3)c2F)CC1 [Omecamtiv mecarbil] | -10 | -12.1 | -17.5 | -17.9 | 8.94 | 8.94 | 4.13 | -7.43 | 1.24 | 5.67 | > 10 | > 10 |
| CCCCCCCCCCC[C@@H](C[C@@H]1OC(=O)[C@H]1CCCCCC)OC(=O)[C@H](CC(C)C)NC=O [Orlistat] | -6.57 | -2.27 | -2.16 | -13.4 | 15.7 | 4.58 | -13.3 | -7.69 | -2.81 | 37 | > 10 | > 10 |
| O=C(Nc1ccc(O)cc1)c1ccccc1O [Osalmid] | -19.6 | -14.3 | -16 | -6.29 | -7.75 | -15.5 | -18.3 | -10.9 | -10.7 | 5 | > 10 | > 10 |
| OC(CNc1ccccc1)Cn1c2ccc(Br)cc2c2cc(Br)ccc21 (stereo not drawn) [P7C3] | -3.09 | -13 | -15.4 | -15.3 | 6.71 | 10.1 | -2.92 | 4.14 | -4.2 | 7.54 | > 10 | > 10 |
| O=C(/C=C/c1ccc2ccccc2n1)c1ccncc1 [PFK015] | -28 | -23.8 | -16.3 | -14 | 124 | -7.66 | -7.18 | -5.47 | 34 | 124 | 2.71 | 2.17 |
